The values below come from paper PMC10899606, “Thwarting resistance: MgrA inhibition with methylophiopogonanone a unveils a new battlefront against S. aureus” (NPJ Biofilms and Microbiomes, 2024).

Assay [1] has as its target T1, MgrA (Staphylococcus aureus, UniProt P0C1S0).
T1 construct: homodimer in nature
The assay can be described thus: fluorescence anisotropy, inhibition of MgrA binding to DNA probe. The format is biochemical. Background: In fluorescence polarisation assays a small probe gives low polarisation when free and higher when bound to something large.

The target of assay [2] is T1, MgrA. Put plainly: intrinsic fluorescence quenching (ex […] nm), Stern-Volmer, linear regression. In kind it is binding. Particulars: PBS, MgrA 2 nM; static quenching.
Assay [3] deals with T1, MgrA. Put plainly: thermal shift assay (Sypro Orange). The following applies: Tm is lowered by the compound; MgrA to Mo-A 1:10 molar ratio, 10 mM Tris, 150 mM NaCl, pH 7.5. The format is binding.

T1 sequence (P0C1S0 2-147): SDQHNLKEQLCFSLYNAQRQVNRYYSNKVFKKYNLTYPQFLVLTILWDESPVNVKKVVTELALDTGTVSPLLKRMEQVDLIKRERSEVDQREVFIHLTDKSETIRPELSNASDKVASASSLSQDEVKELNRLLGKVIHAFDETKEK

With `Cc1c(O)c(C)c2c(c1O)C(=O)[C@H](Cc1ccc3c(c1)OCO3)CO2` [methylophiopogonanone A], the IC50 on MgrA [1] was found to be 95.9 µM. The molecule further showed a KA at MgrA [2] of 62500 L/mol. The “∆Tm (decrease)” value at MgrA [3] is greater than 3 °C.

By IC50 is commonly meant the concentration that inhibits the measured activity by half.
